In patent US5368707A, “Convenient determination of trace lead in whole blood and other fluids” (priority 1993, dated 1994):

Legend:
isocitrate dehydrogenase [1] = biological target: T1, isocitrate dehydrogenase (Sus scrofa, UniProt P33198); assay: Amperometric lead inhibition of ICDH in homogeneous aqueous solution (Example 1); format: biochemical, pig; conditions: pH 8.5 Tris; for Current: 0 V
T1 construct: purchased Sigma, St. Louis, Mo; ICD Type VI
T1 sequence (P33198 9-421): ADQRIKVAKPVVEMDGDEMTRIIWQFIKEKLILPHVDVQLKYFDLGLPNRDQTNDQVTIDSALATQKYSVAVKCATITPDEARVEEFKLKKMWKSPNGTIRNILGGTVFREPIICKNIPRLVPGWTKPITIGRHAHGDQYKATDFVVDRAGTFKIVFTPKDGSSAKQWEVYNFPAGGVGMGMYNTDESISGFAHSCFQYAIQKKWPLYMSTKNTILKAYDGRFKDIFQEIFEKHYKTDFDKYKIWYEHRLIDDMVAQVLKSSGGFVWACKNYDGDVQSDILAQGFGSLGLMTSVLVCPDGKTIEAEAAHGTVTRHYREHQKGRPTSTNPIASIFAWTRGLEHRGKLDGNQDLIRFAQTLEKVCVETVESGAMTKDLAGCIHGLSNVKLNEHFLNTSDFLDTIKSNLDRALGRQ
Method: (§1) Pig heart NADP-linked isocitric dehydrogenase (ICD, EC 1.1.1.42), an oxidoreductase, is sensitive to trace levels of lead ion as low as 1 μg/dl. […] In fact, at low concentrations of activator, e.g., <200 ppb Mn^++, the activity of ICD is proportional to Mn^++ and may be used to determine activator concentration (Guilbault, 1970). Inactivation by inhibitors is useful for determining inhibitor concentration. Specificity of enzymes for activators, or inhibitors, is not as great as for the natural substrate of the enzyme, but in some cases inhibitor concentration may be selectively determined. Silver and mercury have been determined in the presence of each other using isocitrate dehydrogenase (Mealor and Townshend, 1968). However, until now, there has been no satisfactory rapid amperometric method to determine lead ion based on ICD inhibition, much less a simple method to determine low lead ion concentrations in whole blood.
The following example illustrates determination of trace amounts of lead ion in aqueous medium through the inhibition of isocitrate dehydrogenase (ICDH) in homogeneous solution.
Commercially available ICDH (Sigma Chemical Company, St. Louis, Mo.) typically contains considerable amounts of sulfate that interferes with lead ion inhibition of ICDH. Dialysis of ICDH against low ionic strength phosphate buffer caused loss of its activity, which was restored by addition of Mn^2+.
A glassy carbon rod of 3 mm diameter was wrapped in teflon tubing as working electrode and surrounded with a layer of Pt foil as the counter electrode with a silver wire placed in between as the reference electrode. At least one layer of teflon was inserted between two of the three electrodes. All three electrode surfaces were on the same plane. Tubing was fixed on the top of the coplanar electrode surface with an O-ring, forming a microcell of 100-200 μl in volume.
To the microcell was added in sequence: 100 μl 50 mM pH 8.5 Tris buffer, ca. 0.3-0.4 units ICDH and, after 15 min, 5 μl 25 mM NMP-MS, 5 μl 60 mM NADP. The background current was measured at 0 V. 10 μl of 0.5M isocitrate was added and the current measured again. The difference in the two signals was taken as due to the oxidation of isocitrate catalyzed by ICDH.
To measure lead inhibition of ICDH, lead ion was added to the above solution after addition of ICDH but 15 min prior to the addition of NMP-MS and NADP. The current difference with isocitrate was due to inhibition of ICDH by the added lead. FIG. 3 indicates the sensitivity of the electrode to lead ion concentrations in the submicromolar range.

isocitrate dehydrogenase [2] = biological target: T1, isocitrate dehydrogenase; assay: ICDH inhibition by lead in the presence of CoSO4 (Example 8); format: biochemical, pig; conditions: 1 mM CoSO4
Method: (§2) A major problem in the measurement of lead in blood is the interference by various blood proteins and, as in the majority of clinical samples, the presence of excess amounts of EDTA. The inventors have discovered that lead chelated with EDTA is exchangeable with cobalt(II). As shown in this example, lead Pb(II) is displaced from EDTA by cobalt(II) and detected by its inhibition of isocitrate dehydrogenase (ICDH).
Micromolar concentrations of lead were determined through ICDH inhibition in the presence of 1 mM CoSO4.

isocitrate dehydrogenase [3] = biological target: T1, isocitrate dehydrogenase; assay: ICDH inhibition by lead in the presence of EDTA with or without CoSO4 (Example 8); format: biochemical, pig; conditions: 2 mM EDTA; for Inhibition: 2.5 mM CoSO4
Text: as §2
Micromolor concentrations of lead were detected by ICDH inhibition in the presence of 2 mM EDTA and 2.5 mM CoSO4.

isocitrate dehydrogenase [4] = biological target: T1, isocitrate dehydrogenase; assay: Effect of temperature on lead inhibition of isocitrate dehydrogenase (Example 9); format: biochemical, pig; conditions: for Inhibition rate: 4 μM lead, 10 nM enzyme, 15 min; for inhibition rates: lead concentration not printed at this place
Method: The activity of isocitrate dehydrogenase and its response is affected by several factors.
A solution of isocitrate dehydrogenase (10 nM) was incubated for 15 min at various temperatures between 18° C. and 37° C. and rate of lead inhibition measured. Inhibition rates increased approximately linearly from about 25% to 85% at a lead concentration of 4 μM (FIG. 5).

isocitrate dehydrogenase [5] = biological target: T1, isocitrate dehydrogenase; assay: Amperometric ICDH activity with lead-containing whole blood samples; format: biochemical, pig
Text: The present invention concerns approaches to and methods for determining lead ion levels in whole blood. […] Isocitrate dehydrogenase for example is inhibited by lead. […] This is likely due to binding of lead by blood proteins such as albumin or other proteins, although it is also possible that the enzyme is stabilized by an unidentified blood component.

isocitrate dehydrogenase [6] = biological target: T1, isocitrate dehydrogenase; assay: Sensitivity of isocitrate dehydrogenase to lead ion (detection level); format: biochemical, pig
Method: as §1
The inventors have developed a highly sensitive method for the determination of lead ion in solution. Isocitrate dehydrogenase, under specific conditions, may be employed in an assay to quantitatively determine lead ion in the range 0-30 μg per deciliter of solution. Assay sensitivity can be adjusted to a desired concentration range for lead by altering one or more of several parameters such as the concentration of isocitric dehydrogenase. Lower enzyme concentrations increase sensitivity to lead ion.
The inventors have shown that less than 1 μg/dL of lead in solution may be measured employing the enzyme isocitrate dehydrogenase. The measurements are sensitive to several factors, including pH, enzyme concentration, co-factor concentration and temperature. The following example illustrates the effect of pH on enzyme inhibition.

Horseradish peroxidase = conditions: Guilbault, et al., 1968; cited from earlier work

SMILES: [Pb+2] [lead ion]
- % inhibition (isocitrate dehydrogenase [1]; 1.89 μM Pb++): 85.3%
- Current (isocitrate dehydrogenase [1]; 1.89 μM Pb++): 218 nA
- % inhibition (isocitrate dehydrogenase [1]; 90.9 μM Pb++): 98.2%
- Current (isocitrate dehydrogenase [1]; 90.9 μM Pb++): 26 nA
- Inhibition (isocitrate dehydrogenase [2]; 2.4 μM lead): 24%
- Inhibition (isocitrate dehydrogenase [2]; 4.8 μM lead): 46%
- Inhibition (isocitrate dehydrogenase [2]; 12 μM lead): 71%
- Inhibition (isocitrate dehydrogenase [3]; 12 μM lead): 23%
- Inhibition (isocitrate dehydrogenase [3]; 36 μM lead): 32%
- Inhibition (isocitrate dehydrogenase [3]; 121 μM lead): 47%
- Inhibition (in words) (isocitrate dehydrogenase [3]; absence of CoSO4): no inhibition was observed
- Inhibition rate (isocitrate dehydrogenase [4]; 18° C.): about 25%
- inhibition rates (isocitrate dehydrogenase [4]; 18° C.): 25%
- Inhibition rate (isocitrate dehydrogenase [4]; 37° C.): ~85%
- inhibition rates (isocitrate dehydrogenase [4]; 37° C.): about 85%
- inhibition of isocitrate dehydrogenase activity (isocitrate dehydrogenase [5]): do not detectably inhibit isocitrate dehydrogenase activity
- reversibility of binding to ICDH (isocitrate dehydrogenase [6]): binds irreversibly to the enzyme
- detectable lead ion level (isocitrate dehydrogenase [6]; ICDH inhibition): ~1 µg/dL
- quantitatively determinable lead range (isocitrate dehydrogenase [6]; isocitrate dehydrogenase assay, in solution): 0-30 μg per deciliter
- linear range of peroxidase inhibition (Horseradish peroxidase): 10 to 185 µg/mL
